Consider three compounds from patent US20240262805A1, “METHOD FOR PRODUCING COMPOUND OR PHARMACEUTICALLY ACCEPTABLE SALT THEREOF” (EA PHARMA CO., LTD., priority 2021, published 2024).

Format in all cases: physicochemical
A short description of data set [1]: Measurement of solubility at pH 6.9 (saturated solution, HPLC). The following applies: second dissolution test solution (pH 6.9), shaken at 20° C. for 24 hours, filtrate determined by HPLC. As to the method: Specifically, the crystal B can achieve a solubility at pH 6.9 of 50 μg/ml or more. Here, the solubility at pH 6.9 is measured by HPLC analysis. Specifically, the solubility at pH 6.9 can be measured in the method described below in Examples.
Regarding the crystals B and C, the solubility at pH 6.9 was measured. Specifically, a sample was excessively added to a second dissolution test solution (pH 6.9) (manufactured by Kanto Chemical Co., Inc.), and the mixture was shaken at 20° C. for 24 hours to produce a saturated solution. After the undissolved sample was removed with a filter, the amount of the compound in the filtrate was determined by HPLC, and the solubility […] was calculated.

Data set [2] can be described thus: Measurement of moisture absorption (automatic gas and vapor adsorption analyzer). The following applies: BELSORP Aqua3 automatic gas and vapor adsorption analyzer. As to the method: Regarding the crystals B and C, the moisture absorption was measured by using an automatic gas and vapor adsorption analyzer (BELSORP Aqua3 manufactured by MicrotracBEL Corp.)
Data set [3] in a line: Deliquescence on standing at 60% RH and 25° C. Particulars: left in an environment of 60% RH and 25° C.; initially white powder. As to the method: In reference to the description on page 56 in Patent Literature 1 (International Publication No. WO2017/135472), the compound 10-BoC was deprotected. Specifically, the compound 10-BoC was dissolved in ethyl acetate and the reaction liquid was cooled to 5° C. After that, a hydrochloric acid/ethyl acetate solution was added dropwise thereto, followed by stirring at 20° C. for 16 hours. After that, the solid was filtered out and dried under reduced pressure to obtain a compound 16-HCl (a hydrochloric acid salt of the compound 16). The obtained compound was initially white powder, but when left in an environment of 60% RH and 25° C., was completely deliquesced within 24 hours.

Counter-ions that a name gives are not always drawn.

`Cc1cc(=O)n(-c2ccc(C[C@H](NC(=O)c3cc(F)c(NS(=O)(=O)c4ccc(NC(=O)C(C)(C)C)cc4)cc3F)C(=O)OCC(C)C)cn2)c(=O)n1C` [crystal B, isobutyl(S)-2-(2,5-difluoro-4-((4-pivalamidophenyl)sulfonamido)benzamide)-3-(6-(3,4-dimethyl-2,6-dioxo-3,6-dihydropyrimidin-1(2H)-yl)pyridin-3-yl)propanoate]: the solubility (usually the dissolved amount per volume that the medium holds) at pH 6.9 in data set [1] was 150 μg/ml. Further, the “moisture absorption (at maximum)” value in data set [2] is at most 1.35%.

`Cc1cc(=O)n(-c2ccc(C[C@H](N)C(=O)OCC(C)C)cn2)c(=O)n1C` [compound 16-HCl]: the “time until completely deliquesced” value in data set [3] was at most 24 h.

As for `Cc1cc(=O)n(-c2ccc(C[C@H](NC(=O)c3cc(F)c(NS(=O)(=O)c4ccc(NC(=O)C(C)(C)C)cc4)cc3F)C(=O)OCC(C)C)cn2)c(=O)n1C` [crystal C, isobutyl(S)-2-(2,5-difluoro-4-((4-pivalamidophenyl)sulfonamido)benzamide)-3-(6-(3,4-dimethyl-2,6-dioxo-3,6-dihydropyrimidin-1(2H)-yl)pyridin-3-yl)propanoate], in data set [1], the “solubility at pH 6.9” value amounted to 25.0 μg/ml. For the same compound, the “moisture absorption (at maximum)” value in data set [2] is at most 0.24%.
